Patent EP1606307B1, “ESTRIENO[3,2-B]/[3,4-C]PYRROLE DERIVATIVES USEFUL AS MODULATORS OF THE ESTROGEN RECEPTORS” (Ortho-McNeil Pharmaceutical, Inc., priority 2002, dated 2004)

Key:
[1] = target: T1, human estrogen receptor α (Homo sapiens, UniProt P03372); assay: Estrogen Receptor α Flash Plate Assay (binding of radiolabeled estrogen); conditions: for inhibition at 1 µM: read-out: ERα at 1µM % Inhibition; for IC50: read-out: ERα Binding IC50
T1 construct: purchased Panvera
T1 sequence (P03372 1-595): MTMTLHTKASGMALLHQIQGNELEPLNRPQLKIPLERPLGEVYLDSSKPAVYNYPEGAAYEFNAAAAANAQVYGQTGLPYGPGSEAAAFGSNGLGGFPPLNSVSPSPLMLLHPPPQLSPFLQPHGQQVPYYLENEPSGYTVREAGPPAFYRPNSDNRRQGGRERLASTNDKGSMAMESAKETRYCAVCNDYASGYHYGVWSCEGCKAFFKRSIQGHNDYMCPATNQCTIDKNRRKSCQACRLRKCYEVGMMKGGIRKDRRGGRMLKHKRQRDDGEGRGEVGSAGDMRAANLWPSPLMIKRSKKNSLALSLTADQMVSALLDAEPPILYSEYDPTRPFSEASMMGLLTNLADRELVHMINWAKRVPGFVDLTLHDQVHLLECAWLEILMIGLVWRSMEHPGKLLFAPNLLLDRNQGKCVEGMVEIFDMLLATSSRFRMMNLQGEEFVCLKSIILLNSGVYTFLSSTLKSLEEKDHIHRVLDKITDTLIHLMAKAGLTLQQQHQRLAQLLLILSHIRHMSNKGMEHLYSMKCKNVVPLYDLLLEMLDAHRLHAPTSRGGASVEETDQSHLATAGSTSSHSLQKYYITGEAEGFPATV
Protocol: This assay monitors binding of radiolabeled estrogen to the estrogen receptor. It was performed on a BioMek 2000 (Beckman). Plates were read in a scintillation counter (Packard TopCount), with decreased counts an indication of binding of a compound to the receptor. The assay was run according to the procedure described by Allan, et al., Anal. Biochem. (1999), 275(2), 243-247.
On day one, 100 µL of Estrogen Screening Buffer (ESB, Panvera) containing 5mM dithiothreitol (DTT, Panvera), 0.5 µg mouse anti-estrogen receptor monoclonal antibody (SRA-1010, Stressgen) and 50 ng purified human estrogen receptor α (nER-α, Panvera) were added to each well of a 96 well FlashPlate Plus plate crosslinked with goat anti-mouse antibodies (NEN Life Sciences). The plate was sealed and incubated at 4°C overnight.
On day two, each well was washed three times with 200 µL PBS, pH 7.2, at room temperature. To each well was then added 98 µL radiolabeled estrogen (0.5 nM, which equals 6 nCi for a 120 Ci/mmol batch, Amersham), diluted in ESB and 5mM dithiothreitol (DTT). To individual wells were then added 2.5 µL test compound diluted in 30% (v/v) dimethyl sulfoxide/50 mM HEPES, pH 7.5. The wells were mixed three times by aspiration, the plate sealed and incubated at room temperature for one hour. The wells were then counted for 1 min in a TopCount scintillation counter (Packard).

[2] = target: T2, human estrogen receptor β (Homo sapiens, UniProt Q92731); assay: Estrogen Receptor β Fluorescence Polarization Assay (Fluormone ES2 displacement); assay type: binding; conditions: read-out: ERβ at 1 µM % Inhibition
T2 construct: purchased Panvera
Text: This assay monitors binding of a fluorescent analog of estrogen (Fluormone ES2, Panvera) to the estrogen receptor. Plates were read in a fluorometer that can be set to polarization mode. A decrease in fluorescence relative to vehicle control is an indication of binding of a compound to the receptor.
It is crucial to avoid introduction of air bubbles into the reaction in each well of the 96 well plate throughout this procedure. (Bubbles on the surface of the reaction disrupt light flow, affecting the polarization reading.) However, it is also crucial to effectively mix the reaction components upon addition to the well.
On ice, a 2X standard mixture of Assay Buffer (Panvera), 10 nM DTT and 40 nM ES2 was prepared. On ice, a 2X reaction mixture of Assay Buffer (Panvera), and 20 nM human estrogen receptor β (hER-β, Panvera) and 40 nM ES2 was also prepared.
Dilutions of test compound were prepared in 30% (v/v) dimethyl sulfoxide/50 mM HEPES, pH 7.5. At this point, the dilutions were 40X the final required concentration.
The standard mixture at 50 µL was then added to each well. The reaction mixture at 48 µL was added to all wells. The compound dilution at 2.5 µL was added to the appropriate wells. The reaction mixtures were mixed using a manual pipette, a roll of aluminum foil adhesive cover was placed on the plate and the plate incubated at room temperature for 1 hour.
Each well on the plate was then read in an LjL Analyst with an excitation wavelength of […] and an emission wavelength of 538.

MCF-7 cells = assay: MCF-7 Cell Proliferation Assay (14C-thymidine incorporation); assay type: cell-based; conditions: Homo sapiens, MCF7, increase in 14C-thymidine vs vehicle, read-out: MCF7 (Breast) EC50
Protocol: This assay was run according to the procedure described by Welshons, et al., (Breast Cancer Res. Treat., 1987, 10(2), 169-75), with minor modification.
Briefly, MCF-7 cells (from Dr. C. Jordan, Northwestern University) were maintained in RPMI 1640 phenol red free medium (Gibco) in 10% FBS (Hyclone), supplemented with bovine insulin and non-essential amino acid (Sigma). The cells were initially treated with 4-hydoxyltamoxifen (10^-8 M) and let stand at 37°C for 24 hours. Following this incubation with tamoxifen, the cells were treated with compounds at various concentrations.
Compounds to be tested in the agonist mode were added to the culture media at varying concentrations. Compounds to be treated in the antagonist mode were prepared similarly, and 10 nM 17β-estradiol was also added to the culture media. The cells were incubated for 24 hours at 37°C. Following this incubation, 0.1 µCi of ^14C-thymidine (56mCi/mmol, Amersham) was added to the culture media and the cells were incubated for an additional 24 hours at 37°C. The cells were then washed twice with Hank's buffered salt solution (HBSS) (Gibco) and counted with a scintillation counter. The increase in the ^14C-thymidine in the compound treated cells relative to the vehicle control cells were reported as percent increase in cell proliferation.

[3] = tested on: Human Endometrial lshikawa Cells; assay: Alkaline Phosphatase Assay in Human Endometrial Ishikawa Cells; assay type: cell-based; conditions: increase in alkaline phosphatase activity vs vehicle
Protocol: This assay was run according to the procedure described by Albert et a., Cancer Res, […], 50(11), 330-6-10, with minor modification.
Ishikawa cells (from ATCC) were maintained in DMEM/F12 (1:1) phenol red free medium (Gibco) supplemented with 10% calf serum (Hyclone). 24 hours prior to testing, the medium was changed to DMEM/F12 (1:1) phenol red free containing 2% calf serum.
Compounds to be tested in the agonist mode were added to the culture media at varying concentrations. Compounds to be treated in the antagonist mode were prepared similarly, and 10 nM 17β-estradiol was also added to the culture media. The cells were then incubated at 37°C for 3 days. On the fourth day, the media was remove, 1 volume of 1X Dilution Buffer (Clontech) was added to the well followed by addition of 1 volume of Assay Buffer (Clontech). The cells were then incubated at room temperature for 5 minutes. 1 volume of freshly prepared Chemiluminescence Buffer (1 volume of chemiluminescent substrate (CSPD) in 19 volume Chemiluminescent Enhancer with final concentration of CSPD at 1.25 mM; Sigma Chemical Co.) was added. The cells were incubated at room temperature for 10 minutes and then quantified on a luminometer. The increase of chemiluminescence over vehicle control was used to calculate the increase in alkaline phosphatase activity.

T2 sequence (Q92731 whole entry): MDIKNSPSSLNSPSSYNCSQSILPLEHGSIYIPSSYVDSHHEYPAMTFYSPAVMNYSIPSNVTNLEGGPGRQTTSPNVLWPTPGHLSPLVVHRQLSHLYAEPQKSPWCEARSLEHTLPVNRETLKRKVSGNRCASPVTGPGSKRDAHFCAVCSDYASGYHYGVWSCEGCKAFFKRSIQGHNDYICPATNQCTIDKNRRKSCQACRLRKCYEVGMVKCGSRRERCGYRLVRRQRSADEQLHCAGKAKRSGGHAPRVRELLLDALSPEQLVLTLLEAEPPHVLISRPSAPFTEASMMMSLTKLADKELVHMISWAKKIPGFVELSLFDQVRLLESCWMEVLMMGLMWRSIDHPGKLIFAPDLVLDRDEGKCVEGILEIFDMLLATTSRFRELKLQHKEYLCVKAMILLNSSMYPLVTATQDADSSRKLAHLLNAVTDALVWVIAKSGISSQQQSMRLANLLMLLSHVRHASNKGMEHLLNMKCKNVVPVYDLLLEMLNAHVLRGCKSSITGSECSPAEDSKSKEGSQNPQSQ

Row | inhibition at 1 µM [1] [%] | inhibition at 1 µM [2] [%] | SMILES | IC50 [1] [nM] | EC50 (MCF-7 cells) [nM] | EC50 [3] [nM]
1 | 11 | 6.2 | C[C@]12CCC3c4cc5ccn(S(C)(=O)=O)c5cc4CCC3C1CCC2=O (stereo partly shown) [Compound 1] | – | – | –
2 | 45 | 27 | C[C@]12CCC3c4ccc5c(ccn5S(C)(=O)=O)c4CCC3C1CCC2=O (stereo partly shown) [Compound 2] | – | – | –
3 | – | – | C[C@]12CCC3c4cc5cc[nH]c5cc4CCC3C1CCC2=O (stereo partly shown) [Compound 3] | 2200 | 240 | 1.9
4 | – | – | C[C@]12CCC3c4ccc5[nH]ccc5c4CCC3C1CCC2=O (stereo partly shown) [Compound 4] | 1400 | 280 | 1.8
5 | – | – | C[C@]12CCC3c4ccc5[nH]ccc5c4CCC3C1CC[C@@H]2O (stereo partly shown) [Compound 6] | 42 | 2.9 | 0.21
6 | 19 | 14 | C[C@]12CCC3c4cc5ccn(S(C)(=O)=O)c5cc4CCC3C1CC[C@@H]2O (stereo partly shown) [Compound 7] | – | – | –
7 | – | – | C[C@]12CCC3c4cc5cc[nH]c5cc4CCC3C1CC[C@@H]2O (stereo partly shown) [Compound 8] | 40 | 11 | 0.44
8 | 95 | 96 | CCCCC(=O)O[C@H]1CCC2C3CCc4cc5[nH]ccc5cc4C3CC[C@@]21C (stereo partly shown) [Compound 12] | – | – | –
9 | – | – | C[C@]12CCC3c4cc5cc[nH]c5cc4CCC3C1CC[C@@H]2OC(=O)CCC(=O)O (stereo partly shown) [Compound 13] | 920 | 15 | 1.2
10 | 81 | 66 | CSc1c[nH]c2ccc3c(c12)CCC1C3CC[C@]2(C)C(=O)CCC12 (stereo partly shown) [Compound 15] | – | – | –
